Experimental data published in patent publication US20020009464A1, “Modified glycosides, compositions comprised thereof and methods of use thereof” (priority 1997, published 2002).

Legend:
[1] = Release of model active from glass layers monitored by absorbance at 510 nm; format: physicochemical; conditions: aqueous 5% Tween 20, constant agitation
From the text: Disperse Red 1 was incorporated as a model active in a glass of lactitol nonaacetate (ratio 0.1/100 g/g) by melt mixing. The release of model active from 0.5 mm and 3 mm thickness layers of glass, into either water or an aqueous solution of 5% Tween 20, was monitored by absorbance at 510 nm.

[2] = Glass transition temperature (Tg) by differential scanning calorimetry; conditions: DSC, average of two runs
From the text: The acetylated polyol was recovered by evaporating off the solvent and the derivative characterized by nuclear magnetic resonance spectroscopy (NMR) and differential scanning calorimetry (DSC).
Tgs were obtained as the average of two runs.

| time to complete release of active ([1]; 0.5 mm thickness glass) [h] | time to complete release of active ([1]; 3 mm thickness glass) [h] | Compound | Tg [2] [°C] |
| --- | --- | --- | --- |
| 12 | 72 | CCN(CCO)c1ccc(N=Nc2ccc([N+](=O)[O-])cc2)cc1 [Disperse red 1] |  |
|  |  | α-D-glucopyranosyl-1→6-mannitol nonaacetate [GPM nonaacetate] | 35 |
|  |  | α-D-glucopyranosyl-1→6-sorbitol nonaacetate [GPS nonaacetate] | 17.4 |
